These results are taken from ChEMBL document CHEMBL1129679 (J Med Chem, 1996).

Test [1] concerns the target T1, Dihydrofolate reductase (Homo sapiens, UniProt P00374).
T1 sequence (P00374 whole entry): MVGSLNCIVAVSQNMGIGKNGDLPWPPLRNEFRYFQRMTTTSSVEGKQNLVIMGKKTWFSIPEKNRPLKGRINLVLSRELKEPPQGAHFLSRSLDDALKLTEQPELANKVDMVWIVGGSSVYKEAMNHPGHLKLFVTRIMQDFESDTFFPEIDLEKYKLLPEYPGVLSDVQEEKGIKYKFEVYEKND
As to the kind of experiment: Inhibitory activity against Dihydrofolate reductase (DHFR) isolated from CCRF-CEM human leukemia cells in experiment 1. The class given is cell-free.

Test [2] concerns the target T1, Dihydrofolate reductase. The experiment in a line: Inhibitory activity against Dihydrofolate reductase (DHFR) isolated from CCRF-CEM human leukemia cells in experiment 2. The class given is cell-free.

Each structure is given as a SMILES string.

At Dihydrofolate reductase [1], `CN(Cc1cnc2nc(N)nc(N)c2n1)c1ccc(C(=O)N[C@H](C[C@@H](F)C(=O)O)C(=O)O)cc1` came in with an IC50 of 0.84 nM. The same measure, in the same setting: the figure for `CN(Cc1cnc2nc(N)nc(N)c2n1)c1ccc(C(=O)NC(CC(F)C(=O)O)C(=O)O)cc1` (racemic) is 1.35 nM. For the molecule `CN(Cc1cnc2nc(N)nc(N)c2n1)c1ccc(C(=O)NC(C(=O)O)C(F)(F)CC(=O)O)cc1` (racemic), 1.34 nM corresponded to half-maximal inhibition against Dihydrofolate reductase [2] (IC50).
